Laboratory results published in patent publication US12030875B2, “EIF4E inhibitors and uses thereof” (PIC Therapeutics, Inc., priority 2018, dated 2024).

Biological target: T1, Human eIF4E (Homo sapiens, UniProt P06730)
T1 construct: Human eIF4E (aa 28-217) with a C-terminal His-tag; made in house
Assay: Human eIF4E/4G2 binding assay (TR-FRET)
Conditions: eIF4E (aa 28-217) with biotin labeled 4G2 peptide
Method: Human eIF4E (aa 28-217) with a C-terminal His-tag was expressed in E. coli in inclusion bodies. The protein was solubilized with 8 M urea and purified under denaturing conditions using nickel-charged HisTrap HP columns (GE Healthcare). The purified protein was then refolded by diluting in 20 mM Hepes pH 7.0, 0.5 M NaCl, 1 mM DTT, 1 mM EDTA, 0.5 M arginine plus 6 M urea, and then dialyzing overnight into the same buffer without the urea. The protein was further dialyzed into 20 mM Hepes, pH 6.5, 50 mM NaCl, 1 mM EDTA, 1 mM DTT, and concentrated using Hitrap SP sepharose FF columns (GE Healthcare). The concentrated protein was dialyzed into 20 mM Hepes, pH 7.0, 0.5M NaCl, 5 mM DTT and 10% glycerol, and stored at −80° C. until use.
Test compounds (3.43 mM stock in DMSO) were diluted 2-fold in series in DMSO (10 concentration points). Compound solutions (1.2 μl/well) were added into black 384-well polypropylene microplates (Matrix, Thermal Scientific). Twenty-two microliters per well of Assay Buffer (50 mM NaPi, pH 6.5, 50 mM KCl, 1 mM DTT and 0.5 mg/ml gamma globulin) and eight microliters per well of 82.5 nM purified eIF4E in Assay Buffer were added. The samples were incubated at room temperature (20-23° C.) for 15 min. Biotin labeled 4G2 peptide (Ac-Lys-Gln-Tyr-Asp-Arg-Glu-Phe-Leu-Leu-Asp-Phe-Gln-Phe-Met-Pro-Lys(Aha-Bio)-NH2, 1.75 μM stock in DMSO) was diluted to 0.14 μM in Assay Buffer (without DTT) and 5 μl/well was added. The samples were incubated at room temperature for 15 min. Five microliters per well of 6.4 nM Eu-streptavidin (Eu-SA, Perkin Elmer) and 80 nM Allophycocyanin (APC)-anti His antibody (Columbia Biosciences) in Assay Buffer (without DTT) were then added and the samples were incubated at room temperature for 20 min.
Assay signals were monitored by reading excitation at 340 nm and emission fluorescence at 615 nm and 665 nm on an Envision reader (Perkin Elmer). Normalized TR-FRET (time-resolved fluorescence resonance energy transfer) assay signal (Rn) was calculated by the formula: Rn═[(A−Ba−C×D)/(D−Bd)]×(Dc−Bd) • Where A is the fluorescence intensity of the sample at 665 nm, • D is the fluorescence intensity of the sample at 615 nm, • Ba and Bd are plate backgrounds at 665 nm and 615 nm, respectively, • Dc is the fluorescence intensity of 0.78 nM Eu-SA in the assay buffer at 615 nm • The cross-talk factor (C) is determined by the following formula: C=(Ac−Ba)/(Dc−Bd) • Where Ac is the fluorescence intensity of 0.78 nM Eu-SA in the assay buffer at 665 nm.
IC50 values were calculated using xLFit program (IDBS).

T1 sequence (P06730 28-217): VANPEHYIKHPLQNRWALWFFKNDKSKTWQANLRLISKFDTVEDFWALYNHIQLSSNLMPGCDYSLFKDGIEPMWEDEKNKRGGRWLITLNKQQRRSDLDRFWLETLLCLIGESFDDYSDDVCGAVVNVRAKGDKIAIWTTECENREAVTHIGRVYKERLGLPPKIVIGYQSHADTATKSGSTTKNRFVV

Structure (SMILES)	IC50 [µM]
O=C(O)C1(CNc2nc(-c3ccc(Oc4ccccc4)cc3)c(-c3cncnc3)s2)CC1 [Compound I-197]	> 25
CC1(C(=O)O)CCCN(c2nc(-c3ccc(-c4cnco4)cc3)c(-c3ccccc3)s2)C1 (stereo not drawn) [Compound I-60]	> 25
CC(C)C(CC(=O)O)Nc1nc(-c2ccc(-c3cnco3)cc2)c(-c2cccc3[nH]ccc23)s1 (stereo not drawn) [Compound I-4]	> 25
O=C(O)C1(CNc2nc(-c3ccc(Oc4ccccc4)cc3)c(-c3ccccc3)s2)CC1 [Compound I-196]	< 5
CC(C)(CNc1nc(-c2ccc(Oc3ccccc3)cc2)c(-c2cccc3[nH]ccc23)s1)C(=O)O [Compound I-157]	5 to 25
O=C(O)CC1CCCN1c1nc(-c2ccc(Oc3ccccc3)cc2)c(-c2cccc3[nH]ccc23)s1 (stereo not drawn) [Compound I-189]	5 to 25
CC(CNc1nc(-c2ccc(-c3ccc(F)cc3)cc2)cs1)C(=O)O (stereo not drawn) [Compound I-99]	> 25
CC(CC(=O)O)Nc1nc(-c2ccc(Oc3ccccc3)cc2)c(-c2cncnc2)s1 (stereo not drawn) [Compound I-173]	> 25
O=C(O)C1CCCN(c2nc(-c3ccc(-c4cnco4)cc3)c(-c3cccnc3)s2)C1 (stereo not drawn) [Compound I-33]	> 25
CC1(C(=O)O)CCCN(c2nc(-c3ccc(Oc4ccccc4)cc3)c(-c3ccccc3)s2)C1 (stereo not drawn) [Compound I-217]	< 5
O=C(O)C1CC(CNc2nc(-c3ccc(-c4ccc(F)cc4)cc3)c(-c3ccccc3)s2)C1 (stereo not drawn) [Compound I-128]	< 5
CC(CNc1nc(-c2ccc(-c3cnco3)cc2)cs1)C(=O)O (stereo not drawn) [Compound I-26]	> 25
O=C(O)C1(CNc2nc(-c3ccc(-c4ccc(F)cc4)cc3)c(-c3cncnc3)s2)CC1 [Compound I-123]	> 25
O=C(O)C1CCCN(c2nc(-c3ccc(-c4ccc(F)cc4)cc3)c(-c3cncnc3)s2)C1 (stereo not drawn) [Compound I-107]	> 25
O=C(O)C1CCCN(c2nc(-c3ccc(Oc4ccccc4)cc3)c(-c3cncnc3)s2)C1 (stereo not drawn) [Compound I-183]	> 25
CC1(C(=O)O)CN(c2nc(-c3ccc(-c4cnco4)cc3)c(-c3cncnc3)s2)C1 [Compound I-14]	> 25
O=C(O)C1CCN(c2nc(-c3ccc(-c4cnco4)cc3)c(-c3cccc4[nH]ccc34)s2)CC1 [Compound I-55]	> 25
CC(CNc1nc(-c2ccc(-c3ccc(F)cc3)cc2)c(-c2cccnc2)s1)C(=O)O (stereo not drawn) [Compound I-103]	> 25
O=C(O)C1CCN(c2nc(-c3ccc(Oc4ccccc4)cc3)c(-c3cccnc3)s2)C1 (stereo not drawn) [Compound I-193]	> 25
CC1(C(=O)O)CN(c2nc(-c3ccc(-c4cnco4)cc3)c(-c3cccc4[nH]ccc34)s2)C1 [Compound I-16]	> 25
O=C(O)C1CCCN(c2nc(-c3ccc(Oc4ccccc4)cc3)c(-c3cccc4[nH]ccc34)s2)C1 (stereo not drawn) [Compound I-185]	< 5
CC1(C(=O)O)CCCN(c2nc(-c3ccc(Oc4ccccc4)cc3)c(-c3cccc4[nH]ccc34)s2)C1 (stereo not drawn) [Compound I-220]	< 5
CCCC(CNc1nc(-c2ccc(-c3ccc(F)cc3)cc2)c(-c2cccnc2)s1)C(=O)O (stereo not drawn) [Compound I-91]	> 25
O=C(O)C1CCCN(c2nc(-c3ccc(Oc4ccccc4)cc3)c(-c3ccccc3)s2)C1 (stereo not drawn) [Compound I-182]	< 5
O=C(O)C1CCN(c2nc(-c3ccc(-c4cnco4)cc3)c(-c3cccnc3)s2)C1 (stereo not drawn) [Compound I-42]	> 25
CC1(C(=O)O)CN(c2nc(-c3ccc(-c4cnco4)cc3)c(-c3ccccc3)s2)C1 [Compound I-13]	> 25
O=C(O)C1(CNc2nc(-c3ccc(-c4ccc(F)cc4)cc3)c(-c3ccccc3)s2)CC1 [Compound I-122]	< 5
O=C(O)C1CN(c2nc(-c3ccc(-c4ccc(F)cc4)cc3)c(-c3cccnc3)s2)C1 [Compound I-79]	> 25
O=C(O)C1CCN(c2nc(-c3ccc(-c4ccc(F)cc4)cc3)c(-c3cncnc3)s2)CC1 [Compound I-137]	> 25
O=C(O)C[C@@H]1CCCN1c1nc(-c2ccc(-c3ccc(F)cc3)cc2)c(-c2ccccc2)s1 [Compound I-226]	< 5
